Reference: patent US7183267B2, “β-lactamase inhibitors and methods of use thereof” (priority 2003, dated 2007)
Where two headings read alike, the source gives them in different places.

Legend:
β-lactamase mutant R244S = β-lactamase mutant R244S (Escherichia coli, UniProt P62593, R241S); assay type: biochemical; conditions: number higher than 1 reflects a loss of potency against mutant
Description: (§1) The inhibition of TEM-1 β-lactamase was determined spectrophotometrically. B-lactamase activity was followed by measuring the hydrolysis of nitrocefin, [3-(2,4-dinitrostyryl)-(6R, 7R)-7-(2-thienylacetamido)-ceph-3-em-4-carboxylic acid, E-isomer], (Calbiochem, San Diego, Calif., USA) at 486 nm. Inhibition assays were performed at 25° C. in 50 mM sodium phosphate, 5% DMSO, pH 7.0. […] Inhibitor was added to the enzyme and incubated for ten minutes before the addition of substrate. Inhibition constants (Ki) for the inhibitors are obtained at the desired temperature and solvent conditions by measuring the rate of substrate hydrolysis at increasing amounts of inhibitors.
(§2) Three of the most important mutations are M69I, R244S and E104K.

β-lactamase mutant M69I = β-lactamase mutant M69I (Escherichia coli, UniProt P62593, M67I); assay type: biochemical; conditions: number higher than 1 reflects a loss of potency against mutant
Description: as §1, §2

β-lactamase mutant E104K = β-lactamase mutant E104K (Escherichia coli, UniProt P62593, E102K); assay type: biochemical; conditions: number higher than 1 reflects a loss of potency against mutant
Description: as §1, §2

TEM-1 β-lactamase [1] = molecular target: T1, TEM-1 β-lactamase (Escherichia coli, UniProt P62593); test: TEM-1 β-lactamase inhibition assay (nitrocefin hydrolysis, 486 nm); assay type: biochemical
Description: as §1
(§3) The competitive inhibition of β-lactamase was determined spectrophotometrically using a Varian (Walnut Creek, Calif.) Cary 100 UV-Visible spectrophotometer. β-lactamase activity was followed by measuring the hydrolysis of nitrocefin, [3-(2,4-dinitrostyryl)-(6R, 7R)-7-(2-thienylacetamido)-ceph-3-em-4-carboxylic acid, E-isomer], (Calbiochem, San Diego, Calif.) at 486 nm. Inhibition assays were performed at 25° C. in 50 mM sodium phosphate, 5% DMSO, pH 7.0. […] Penicillin G (Sigma, St. Louis, Mo.) was also used as a substrate to determine KM and kcat.
(§4) Inhibitor was added to protein and incubated for ten minutes before the addition of substrate. Inhibition constants were determined by measuring the loss of P-lactamase activity with increasing inhibitor concentrations and fitting the data to standard equations for competitive inhibition.
(§5) These methods can also be used to express and assay recombinant TEM-1 variant of β-lactamase.

AmpC β-lactamase [2] = molecular target: T2, AmpC β-lactamase (Escherichia coli, UniProt P00811); test: AmpC β-lactamase competitive inhibition assay (nitrocefin hydrolysis); assay type: biochemical
T2 construct: made in house; host or cells: E. coli BL21 (DE3)
Description: The gene for AmpC β-lactamase (accession number P00811) was obtained from Escherichia coli K12 strain W3110 (American Type Culture Collection, Rockville Md.). E. coli was grown and plasmid (F-lacIq lacPL8 ampC::lambdacI+) was isolated via Qiagen (Valencia, Calif.) mini prep. The gene for AmpC was amplified in two pieces via polymerase chain reaction, ligated and purified by agarose gel electrophoresis. The ligated gene was inserted into a pET200 vector via a TOPO reaction (Invitrogen, Carlsbad, Calif.).
BL21 (DE3) (Invitrogen) cells were transformed by heat-shock with the prepared plasmid. These cells were grown to an OD600 of 0.8 at 37° C. Isopropylthiogalactoside (IPTG) was added to 1 mM, incubation temperature decreased to 25° C. and the cells were grown for an additional 18 hours. After 18 hours, the E. coli was pelleted by centrifugation, and discarded. The growth media was concentrated and dialyzed versus 100 mM Tris, pH 7.0. This solution was run through an equilibrated Q-resin column, and washed with excess 100 mM Tris, pH 7.0.
as §3, §4

AmpC β-lactamase [3] = molecular target: T2, AmpC β-lactamase; conditions: binding to AmpC; ITC
Description: (§6) Isothermal titration calorimetry was performed on a high-precision VP-ITC titration calorimeter (Microcal Inc., Northampton, Mass.). β-Lactamase solutions were titrated with inhibitors in 50 mM sodium phosphate, 2% DMSO, pH 7.0, with β-lactamase concentrations ranging from 15 to 25 μM and inhibitor concentrations ranging from 300 to 1000 μM. The heat evolved from each injection was obtained by integrating the calorimetric signal. Heat of binding was obtained as the difference between the heat of reaction and the heat of inhibitor dilution. Data were analyzed using Origin 7.0 (OriginLab Corporation, Northampton, Mass.).
Isothermal titration calorimetry was undertaken to determine the thermodynamic characteristics of binding to AmpC β-lactamase.

TEM-1 β-lactamase [4] = molecular target: T1, TEM-1 β-lactamase; test: Isothermal titration calorimetry, binding to TEM-1 β-lactamase (Example 17); conditions: ITC
Description: as §6, §5
Also shown are the results obtained for β-lactamase variant TEM-1.

[5] = Ki, 25° C., 50 mM sodium phosphate, 5% DMSO, pH 7.0, enzyme 5 nM, nitrocefin 167 μM

Row | SMILES | Loss of potency: ratio of the inhibitory constant between mutant and wild type (Potencywt/Potencymutant), R244S (β-lactamase mutant R244S) | Loss of potency: ratio of the inhibitory constant between mutant and wild type (Potencywt/Potencymutant), M69I (β-lactamase mutant M69I) | Loss of potency: ratio of the inhibitory constant between mutant and wild type (Potencywt/Potencymutant), E104K (β-lactamase mutant E104K) | Ki (TEM-1 β-lactamase [1]; [5]) [µM] | Ki (AmpC β-lactamase [2]) [µM] | ΔG (AmpC β-lactamase [3]) [kcal/mol] | ΔH (AmpC β-lactamase [3]) [kcal/mol] | −TΔS (AmpC β-lactamase [3]) [kcal/mol] | Ki (TEM-1 β-lactamase [1]; Ki, TEM-1 β-lactamase) [µM] | ΔG (TEM-1 β-lactamase [4]) [kcal/mol] | ΔH (TEM-1 β-lactamase [4]) [kcal/mol] | −TΔS (TEM-1 β-lactamase [4]) [kcal/mol] | Ki (TEM-1 β-lactamase [1]) [µM]
1 | O=C(Oc1ccc2sc(=O)oc2c1)c1cc(B(O)O)cc([N+](=O)[O-])c1 [Compound (1f), 3-(2-OxO-benzo[1,3]oxathiol-6-oxycarbonyl)-5-nitrophenylboronic acid] | 0.42 | 0.47 | 0.37 | 33 ± 4 |  |  |  |  |  |  |  |  | 
2 | CCOC(=O)c1ccccc1OC(=O)c1cc(B(O)O)cc([N+](=O)[O-])c1 [Compound (1i), 3-(2-Ethoxycarbonyl-phenoxycarbonyl)-5-nitrophenylboronic acid] | 0.34 | 0.50 | 0.36 | 101 ± 4 |  |  |  |  |  |  |  |  | 
3 | O=C(Oc1cccc(B(O)O)c1)c1cc(B(O)O)cc([N+](=O)[O-])c1 [Compound (1v), 3-(3-Boronophenoxycarbonyl)-5-nitrophenylboronic acid] |  |  |  | 32 ± 1.1 | 5.01 | -7.221 | -10.412 | 3.191 |  |  |  |  | 
4 | CC(C)(C)c1cc(OC(=O)c2cc(B(O)O)cc([N+](=O)[O-])c2)ccc1OC(=O)c1cc(B(O)O)cc([N+](=O)[O-])c1 [Compound (2d)] |  |  |  |  | 6.27 | -7.098 | 0 | -7.098 | 10.9 | -6.513 | -0.859 | -5.654 | 
5 | CC1(C)[C@H](C(=O)O)N2C(=O)C[C@H]2S1(=O)=O [Sulbactam, sulbactam, reference compound] | 93 | 15 | 1 |  |  |  |  |  |  |  |  |  | 
6 | O=C(Oc1c(Cl)c(Cl)c(OC(=O)c2cc(B(O)O)cc([N+](=O)[O-])c2)c(Cl)c1Cl)c1cc(B(O)O)cc([N+](=O)[O-])c1 [Compound (2c)] |  |  |  |  | 3.68 | -7.115 | -0.473 | -6.642 | 6.7 | -5.814 | -1.648 | -4.166 | 
7 | C[C@]1(Cn2ccnn2)[C@H](C(=O)O)N2C(=O)C[C@H]2S1(=O)=O [Tazobactam, tazobactam, reference compound] | 105 | 31 | 1 |  |  |  |  |  |  |  |  |  | 
8 | O=C(OCc1ccccc1)c1cccc(B(O)O)c1 [Compound F1001] |  |  |  | 104 | 1.79 | -6.83 | -0.644 | -6.186 |  |  |  |  | 
9 | O=C(Oc1cccc(B(O)O)c1)c1c(Cl)cccc1Cl [Compound (6a), 3-(2,6-Dichlorophenylcarbonyloxy)phenyl boronic acid] |  |  |  | 28 ± 2.1 | 1.53 | -7.757 | -6.538 | -1.219 |  |  |  |  | 
10 | O=C(OCc1cccc(B(O)O)c1)c1cc(B(O)O)cc([N+](=O)[O-])c1 [Compound (3d), 3-(3-Boronobenzyloxycarbonyl)-5-nitrophenylboronic acid] |  |  |  | 55.7 ± 4.3 | 1.03 | -7.442 | -15.637 | 8.195 |  |  |  |  | 
11 | O=C(Oc1ccc(OC(=O)c2cc(B(O)O)cc([N+](=O)[O-])c2)c(Cl)c1)c1cc(B(O)O)cc([N+](=O)[O-])c1 [Compound (2b), 3-Borono-5-nitrobenzoic acid 2-chloro-1,4-phenylene ester] |  |  |  | 15.2 ± 1.4 | 2.92 | -7.736 | -0.225 | -7.511 | 15.2 | -7.864 | -0.52 | -7.344 | 
12 | O=C(Oc1cc(OC(=O)c2cc(B(O)O)cc([N+](=O)[O-])c2)cc(OC(=O)c2cc(B(O)O)cc([N+](=O)[O-])c2)c1)c1cc(B(O)O)cc([N+](=O)[O-])c1 [Compound (12a), Tris(3-borono-5-nitrobenzoic acid), 1,3,5-trihydroxybenzene ester] |  |  |  |  | 1.94 | -7.231 | -1.47 | -5.761 |  | -6.468 | -0.69 | -5.778 | 6.9
13 | O=C(OCc1ccccc1COC(=O)c1cc(B(O)O)cc([N+](=O)[O-])c1)c1cc(B(O)O)cc([N+](=O)[O-])c1 [Compound (10a), 3-Borono-5-nitrobenzoic acid 1,2-benzenedimethanol ester] |  |  |  |  | 0.457 | -8.59 | -4.149 | -4.441 | 9.7 | -7.183 | -0.982 | -6.201 | 
14 | O=C(O)[C@H]1/C(=C/CO)O[C@@H]2CC(=O)N21 [Clavulanic, clavulanic acid, reference compound] | 38 | 163 | 0.67 |  |  |  |  |  |  |  |  |  | 
